According to patent publication US4348401A, “N-Phenoxyalkylpiperidine derivatives” (Boehringer Mannheim GmbH, priority 1979, dated 1982):

Tested on: bronchospasm
Assay: inhibition of antigen-induced bronchospasm (Br Sp), passively sensitized guinea pigs, Konzett and Rossler method as modified by Collier
Assay type: in vivo, guinea pig
Settings: 5 minutes before antigen, 3 minutes after antigen, vs control group
Description: In animals narcotized with 40 mg. sodium pentobarbital/kg. body weight, a Y cannula is introduced into the trachea and a venous cannula is introduced in the jugular vein. A cannula introduced in the carotid artery leads to a measurement chamber (Statham, P 23 Db), with which the arterial pressure is recorded via a direct-current voltage potential measuring bridge. Using a respiratory pump, rats are given an air volume, depending upon the size of the animal, of 1 to 2 ml. 64 times and guinea pigs of 7 to 15 ml. 72 times per minute. […] Upon the appearance of a bronchospasm, initiated by the intravenous administration of the antigen, in the case of the respiratory volume remaining the same, all of the supplied volume of air can no longer flow into the lungs and part of it flows off through a side arm via a valve. The method developed by the firm Basile differs from the method originally described by Konzett and Rossler in that this air volume is measured indirectly via the rate of flow with the help of a thermoelement. The strength of a bronchospasm can then be recorded as a percentage reduction of the available bronchial volume. The theoretically maximum possible bronchospasm is obtained by closing the respiration tube on the animal so that all of the air supplied flows off through the valve.
Every 30 seconds, the valve is closed for 8 seconds by a relay and the total volume is pumped into the lungs in order again to expand the bronchi and alveoli and thus to make possible a sufficient gas exchange. The percentage decrease of the available bronchial volume (X) is calculated according to the following equation: [formula] wherein a is the amplitude of the recorder in mm. at the commencement of the experiment, b is the height of the amplitude in mm. at a definite point of time and m is the maximum amplitude in mm. after closing the respiration tube on the animal.
The antigen is 2×crystallized ovalbumin. Equal amounts of a solution of the antigen in physiological sodium chloride solution and complete Freund's adjuvant are emulsified and injected intramuscularly in an amount of 2×0.15 ml. to male guinea pigs. The animals are bled and the pooled serum is stored at -20° C.
The compounds according to the present invention are administered intravenously 5 minutes before administration of the antigen.

Cc1ccccc1C(=O)NC1CCN(CCCOc2ccccc2-c2nnn[nH]2)CC1 [Example 10g, 5-{2-{3-[4-(2-methylbenzamido)-piperidino]-propoxy}-phenyl}-1H-tetrazole]
% inhibition Br Sp (dosage 0.75 mg/kg i.v.): 71%

NC(=O)c1ccccc1OCCCN1CCC(NC(=O)c2ccccc2)CC1 [Example 2b, 2-[3-(4-benzamidopiperidino)-propoxy]-benzamide]
% inhibition Br Sp (dosage 0.38 mg/kg i.v.): 67%

Cn1c(=O)c2[nH]cnc2n(C)c1=O [aminophylline, reference compound]
% inhibition Br Sp (dosage 24 mg/kg i.v.): 29%

O=C(NC1CCN(CCCOc2ccccc2-c2nnn[nH]2)CC1)c1ccccc1 [Example 9, 5-{2-[3-(4-Benzamidopiperidino)-propoxy]-phenyl}-1H-tetrazole]
% inhibition Br Sp (dosage 0.1 mg/kg i.v.): 56%

O=C(NC1CCN(CCCOc2ccccc2C(=O)O)CC1)c1ccccc1 [Example 7, 2-[3-(4-Benzamidopiperidino)-propoxy]-benzoic acid]
% inhibition Br Sp (dosage 1.5 mg/kg i.v.): 45%

COC(=O)c1ccccc1OCCCN1CCC(NC(=O)c2ccccc2)CC1 [Example 2a, methyl 2-[3-(4-benzamidopiperidino)-propoxy]-benzoate]
% inhibition Br Sp (dosage 3.0 mg/kg i.v.): 71%
